According to patent publication US20200405697A1, “Antitumor Agent” (Taiho Pharmaceutical Co., Ltd, priority 2017, published 2020):

The compounds below were run against T1, human RNR (histidine tagged human M1 and human M2 proteins) (Homo sapiens, UniProt P23921) (assay: Human RNR inhibition effect (dCDP formation from CDP)). Settings: 10 μM CDP, 37° C. for 30 minutes, read-out: RNR inhibitory activity IC50.
T1 construct: made in house; host or cells: Escherichia coli
T1 sequence (P23921 1-792): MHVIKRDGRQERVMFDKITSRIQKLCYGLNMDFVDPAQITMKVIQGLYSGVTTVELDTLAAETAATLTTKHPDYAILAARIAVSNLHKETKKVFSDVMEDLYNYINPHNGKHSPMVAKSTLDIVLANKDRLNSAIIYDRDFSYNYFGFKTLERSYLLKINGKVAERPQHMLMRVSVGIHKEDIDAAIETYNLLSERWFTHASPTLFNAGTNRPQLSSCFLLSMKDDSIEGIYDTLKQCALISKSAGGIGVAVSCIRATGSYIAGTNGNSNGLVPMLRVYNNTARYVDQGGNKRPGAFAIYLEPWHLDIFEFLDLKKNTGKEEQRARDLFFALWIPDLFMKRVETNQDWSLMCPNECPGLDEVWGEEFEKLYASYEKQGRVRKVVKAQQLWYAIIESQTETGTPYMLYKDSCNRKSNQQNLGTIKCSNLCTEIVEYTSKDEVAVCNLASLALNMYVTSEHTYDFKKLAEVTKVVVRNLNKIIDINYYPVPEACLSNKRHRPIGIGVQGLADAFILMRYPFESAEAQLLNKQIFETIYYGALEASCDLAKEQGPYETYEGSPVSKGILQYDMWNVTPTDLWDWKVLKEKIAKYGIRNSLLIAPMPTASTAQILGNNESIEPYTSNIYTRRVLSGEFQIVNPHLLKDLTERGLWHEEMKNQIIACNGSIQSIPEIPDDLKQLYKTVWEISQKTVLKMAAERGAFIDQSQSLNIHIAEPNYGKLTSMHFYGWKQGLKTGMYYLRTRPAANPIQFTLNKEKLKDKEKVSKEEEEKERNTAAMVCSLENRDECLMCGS
Type: biochemical
Experimental: The inhibitory activity against the ribonucleotide reduction reaction (RNR inhibitory activity) of the Example compound was determined by measuring the formation of deoxycytidine diphosphate (hereinafter referred to as dCDP) from cytidine diphosphate (hereinafter referred to as CDP) by the following method.
Human M1 subunit (isoform 1, GenBank accession No: NM_001033), to which a histidine tag is fused at the amino terminus, and human M2 subunit (mutant lacking amino terminal 59 amino acids of isoform 2, GenBank accession No: NM_001034), to which a histidine tag is fused, were overexpressed in Escherichia coli and were solubilized after collection, and histidine tagged human M1 and histidine tagged human M2 proteins were purified on a nickel chelate column. A mixture of the histidine tagged human M1 and histidine tagged human M2 proteins was used as RNR in the ribonucleotide reduction reaction. [to]
First, Example compounds were serially diluted with DMSO. Next, human M1 protein and human M2 protein were added to a 0.02% aqueous albumin solution derived from fetal bovine serum, a DMSO solution of the Example compound or the control DMSO solution (final concentration of DMSO was 1%) was added, and the mixture was allowed to stand for 20 minutes. Thereafter, the reaction buffer [50 mM HEPES buffer (pH 7.2) at the final concentration, 4 mM magnesium acetate at the final concentration, 100 mM potassium chloride at the final concentration, 6 mM dithiothreitol at the final concentration, 2 mM adenosine triphosphate at the final concentration, 0.24 mM nicotinamide adenine dinucleotide phosphate at final concentration] and 10 μM CDP at the final concentration were added and incubated at 37° C. for 30 minutes to perform ribonucleotide reduction reaction. Immediately after the reaction, the reaction was stopped by heating at 100° C. for 15 minutes, followed by centrifugation at 10,000 rpm for 10 minutes. After the centrifugation, a portion (5 μL) of the resulting supernatant was analyzed with a high performance liquid chromatography (Shimadzu Corporation, Prominence) using Shim-pack XR-ODS (manufactured by Shimadzu GLC Co., 3.0×100 mm).

Row | SMILES | IC50 [nM]
1 | C[C@H](c1cccc2c1CCC2)[C@H](NS(=O)(=O)c1ccc(Cl)c(C(C)(C)O)n1)c1n[nH]c(=O)o1 [Example 192, 5-chloro-N-((1S,2R)-2-(2,3-dihydro-1H-inden-4-yl)-1-(5-oxo-4,5-dihydro-1,3,4-oxadiazol-2-yl)propyl)-6-(2-hydroxypropan-2-yl)pyridine-2-sulfonamide] | 440
2 | CCc1c(C)cccc1[C@@H](C)[C@H](NS(=O)(=O)c1ccc(Cl)cc1OC)c1n[nH]c(=O)o1 [Example 87, 4-chloro-N-((1S,2R)-2-(2-ethyl-3-methylphenyl)-1-(5-oxo-4,5-dihydro-1,3,4-oxadiazol-2-yl)propyl)-2-methoxybenzenesulfonamide] | 840
3 | Cc1ccc(F)c([C@@H](C)[C@H](NS(=O)(=O)c2ccc(Cl)c(C(=O)N3CCC4(CC3)COC4)n2)c2n[nH]c(=O)o2)c1C [Example 156, 5-chloro-N-((1S,2R)-2-(6-fluoro-2,3-dimethylphenyl)-1-(5-oxo-4,5-dihydro-1,3,4-oxadiazol-2-yl)propyl)-6-(2-oxa-7-azaspiro[3.5]nonane-7-carbonyl)pyridine-2-sulfonamide] | 80
4 | COc1c(S(=O)(=O)N[C@H](c2n[nH]c(=O)o2)[C@H](C)c2c(F)ccc(C)c2C)ncc(Cl)c1C(C)O (stereo partly drawn) [Example 216, 5-chloro-N-((1S,2R)-2-(6-fluoro-2,3-dimethylphenyl)-1-(5-oxo-4,5-dihydro-1,3,4-oxadiazol-2-yl)propyl)-4-(1-hydroxyethyl)-3-methoxypyridine-2-sulfonamide] | 200
5 | COC(=O)c1nc(S(=O)(=O)N[C@H](c2n[nH]c(=O)o2)[C@H](C)c2c(F)ccc(C)c2C)ccc1Cl [Example 109, methyl 3-chloro-6-(N-((1S,2R)-2-(6-fluoro-2,3-dimethylphenyl)-1-(5-oxo-4,5-dihydro-1,3,4-oxadiazol-2-yl)propyl)sulfamoyl)picolinate] | 60
6 | COc1cc(Cl)ccc1S(=O)(=O)N[C@H](c1n[nH]c(=O)o1)[C@H](C)c1c(F)ccc(C#N)c1C [Example 104, 4-chloro-N-((1S,2R)-2-(3-cyano-6-fluoro-2-methylphenyl)-1-(5-oxo-4,5-dihydro-1,3,4-oxadiazol-2-yl)propyl)-2-methoxybenzenesulfonamide] | 840
7 | COc1cc(Cl)ccc1S(=O)(=O)N[C@H](c1n[nH]c(=O)o1)[C@H](C)c1c(F)ccc(-c2ccc(N3CCCCC3)nc2)c1C [Example 320, 4-chloro-N-((1S,2R)-2-(6-fluoro-2-methyl-3-(6-(piperidin-1-yl)pyridin-3-yl)phenyl)-1-(5-oxo-4,5-dihydro-1,3,4-oxadiazol-2-yl)propyl)-2-methoxybenzenesulfonamide] | 600
8 | Cc1ccc(F)c([C@@H](C)[C@H](NS(=O)(=O)c2ccc(Cl)c3c2OCCC3O)c2n[nH]c(=O)o2)c1C (single isomer, unassigned) [Example 235B] | 70
9 | Cc1ccc(F)c([C@@H](C)[C@H](NS(=O)(=O)c2ccc(Cl)c(C(=O)O)n2)c2n[nH]c(=O)o2)c1C [Example 215, 3-chloro-6-(N-((1S,2R)-2-(6-fluoro-2,3-dimethylphenyl)-1-(5-oxo-4,5-dihydro-1,3,4-oxadiazol-2-yl)propyl)sulfamoyl)picolinic acid] | 190
10 | C[C@H](c1cccc2ccccc12)[C@H](NS(=O)(=O)c1ccc(Cl)cc1Cl)c1n[nH]c(=O)o1 [Example 46, 2,4-dichloro-N-((1S,2R)-2-(naphthalen-1-yl)-1-(5-oxo-4,5-dihydro-1,3,4-oxadiazol-2-yl)propyl)benzenesulfonamide] | 840
11 | Cc1c(Cl)ccc(F)c1[C@@H](C)[C@H](NS(=O)(=O)c1ccc(Cl)c2c1OCCC2(C)N)c1n[nH]c(=O)o1 (single isomer, unassigned) [Example 330A] | 120
12 | COc1c(S(=O)(=O)N[C@H](c2n[nH]c(=O)o2)[C@H](C)c2c(F)ccc(C)c2C)ccc(Cl)c1C(C)=O [Example 294, 3-acetyl-4-chloro-N-((1S,2R)-2-(6-fluoro-2,3-dimethylphenyl)-1-(5-oxo-4,5-dihydro-1,3,4-oxadiazol-2-yl)propyl)-2-methoxybenzenesulfonamide] | 110
13 | Cc1ccc(F)c([C@@H](C)[C@H](NS(=O)(=O)c2ccc(Cl)cc2C(N)=O)c2n[nH]c(=O)o2)c1 [Example 21, 5-chloro-2-(N-((1S,2R)-2-(2-fluoro-5-methylphenyl)-1-(5-oxo-4,5-dihydro-1,3,4-oxadiazol-2-yl)propyl)sulfamoyl)benzamide] | 240
14 | Cc1c(Br)ccc(F)c1[C@@H](C)[C@H](NS(=O)(=O)c1ccc(Cl)c2c1OCCC2(C)N)c1n[nH]c(=O)o1 (stereo partly drawn) [Example 329, 4-amino-N-((1S,2R)-2-(3-bromo-6-fluoro-2-methylphenyl)-1-(5-oxo-4,5-dihydro-1,3,4-oxadiazol-2-yl)propyl)-5-chloro-4-methyl-chroman-8-sulfonamide] | 60
15 | Cc1ccc(F)c([C@@H](C)[C@H](NS(=O)(=O)c2ncc(Cl)cc2C(N)=O)c2n[nH]c(=O)o2)c1C [Example 245, 5-chloro-2-(N-((1S,2R)-2-(6-fluoro-2,3-dimethylphenyl)-1-(5-oxo-4,5-dihydro-1,3,4-oxadiazol-2-yl)propyl)sulfamoyl)nicotinamide] | 40
16 | Cc1ccc(F)c([C@@H](C)[C@H](NS(=O)(=O)c2ccc(Cl)cc2C(N)=S)c2n[nH]c(=O)o2)c1C [Example 287, 5-chloro-2-(N-((1S,2R)-2-(6-fluoro-2,3-dimethylphenyl)-1-(5-oxo-4,5-dihydro-1,3,4-oxadiazol-2-yl)propyl)sulfamoyl)benzothioamide] | 50
17 | C[C@H](c1cccc2c1Cc1ccccc1-2)[C@H](NS(=O)(=O)c1ccc(Br)cn1)c1n[nH]c(=O)o1 [Example 49, N-((1S,2R)-2-(9H-fluoren-1-yl)-1-(5-oxo-4,5-dihydro-1,3,4-oxadiazol-2-yl)propyl)-5-bromopyridine-2-sulfonamide] | 800
18 | Cc1ccc(F)c([C@@H](C)[C@H](NS(=O)(=O)c2cc(F)c(Br)cc2F)c2n[nH]c(=O)o2)c1C [Example 339, 4-bromo-2,5-difluoro-N-((1S,2R)-(6-fluoro-2,3-dimethylphenyl)-1-(5-oxo-4,5-dihydro-1,3,4-oxadiazol-2-yl)propyl)benzenesulfonamide] | 510
19 | COC(=O)c1cc(Cl)ccc1S(=O)(=O)N[C@H](c1n[nH]c(=O)o1)[C@H](C)c1c(F)ccc(C)c1C [Example 103, methyl 5-chloro-2-(N-((1S,2R)-2-(6-fluoro-2,3-dimethylphenyl)-1-(5-oxo-4,5-dihydro-1,3,4-oxadiazol-2-yl)propyl)sulfamoyl)benzoate] | 410
20 | C[C@H](c1c(F)ccc2ccccc12)[C@H](NS(=O)(=O)c1ccc(Cl)c2c1OCCC2O)c1n[nH]c(=O)o1 (single isomer, unassigned) [Example 234A] | 310
21 | Cc1ccc(F)c([C@@H](C)[C@H](NS(=O)(=O)c2cc3c(cc2C(N)=O)OCCO3)c2n[nH]c(=O)o2)c1C [Example 261, 7-(N-((1S,2R)-2-(6-fluoro-2,3-dimethylphenyl)-1-(5-oxo-4,5-dihydro-1,3,4-oxadiazol-2-yl)propyl)sulfamoyl)-2,3-dihydrobenzo[b][1,4]dioxin-6-carboxamide] | 90
22 | Cc1ccc(F)c([C@@H](C)[C@H](NS(=O)(=O)c2ccc(F)c3c2OCCC3=O)c2n[nH]c(=O)o2)c1C [Example 159, 5-fluoro-N-((1S,2R)-2-(6-fluoro-2,3-dimethylphenyl)-1-(5-oxo-4,5-dihydro-1,3,4-oxadiazol-2-yl)propyl)-4-oxochroman-8-sulfonamide] | 160
